# Reference: US7504203B2 (priority 2002, dated 2009)
# Molecular target: GST-fused SCDH enzyme expressed from the standard strain cDNA (Pyricularia oryzae, UniProt P56221)
# Assay type: biochemical, rice blast fungus (Pyricularia oryzae)
# GST-fused SCDH enzyme expressed from the standard strain cDNA, sequence (P56221 whole entry, looked up, the tested form may be a part): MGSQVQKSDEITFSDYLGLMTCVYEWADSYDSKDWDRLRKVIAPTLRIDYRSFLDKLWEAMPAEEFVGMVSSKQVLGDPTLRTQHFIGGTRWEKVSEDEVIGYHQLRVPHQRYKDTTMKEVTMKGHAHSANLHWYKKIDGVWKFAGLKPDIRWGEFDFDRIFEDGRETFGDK
smiles,measurement,value
CCC1(C(=O)N[C@H](C)c2ccc(Cl)cc2)C(C)C1(Cl)Cl (stereo partly shown) [carpropamid],drug sensitivity compared with SCDH enzyme in crude enzyme solution from rice blast fungus,exhibited the same drug sensitivity
